Read-outs that look alike come from different tables or passages of the source. Blank lines part the entries; values can stand above or below the compound they belong to.
Experiments:
EAAT3 = target: T1, EAAT3 (Homo sapiens, UniProt P43005); experiment: mEGFPpH fluorescence imaging of intracellular pH in HEK293 cells co-expressing EAAT3
T1 sequence (P43005 1-524): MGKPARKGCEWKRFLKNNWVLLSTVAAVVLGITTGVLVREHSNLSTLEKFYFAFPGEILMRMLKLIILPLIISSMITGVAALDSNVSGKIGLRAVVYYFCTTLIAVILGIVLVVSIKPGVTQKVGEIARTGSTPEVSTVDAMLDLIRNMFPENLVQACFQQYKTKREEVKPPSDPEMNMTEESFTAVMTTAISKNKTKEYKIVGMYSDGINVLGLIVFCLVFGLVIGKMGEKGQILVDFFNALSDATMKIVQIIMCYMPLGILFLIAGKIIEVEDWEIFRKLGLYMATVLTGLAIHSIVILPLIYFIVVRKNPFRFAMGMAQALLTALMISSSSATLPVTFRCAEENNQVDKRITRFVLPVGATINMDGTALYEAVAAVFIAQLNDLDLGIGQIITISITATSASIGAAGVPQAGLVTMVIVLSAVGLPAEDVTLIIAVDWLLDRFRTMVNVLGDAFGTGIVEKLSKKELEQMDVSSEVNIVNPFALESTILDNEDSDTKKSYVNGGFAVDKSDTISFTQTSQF
Description: Cells expressing mEGFPpH were imaged with a Zeiss Axiovert 135T inverted microscope with a 40X NeoFluar oil immersion objective (NA1.3). A Lambda DG4 (Sutter Instrument Co.) equipped with a xenon arc lamp was used for high-speed excitation wavelength switching. Images were collected using either a Quantix (Roper Scientific, Tucson, AZ) or an Orca ER (Hammamatsu Co.) cooled CCD. For pH imaging experiments, the fluorescence filters (Omega Optical) were: excitation 405±20 and 485±7.5; dichroic 400-480-585DLRP; emission 510±11.5. Software control and data acquisition were accomplished using Axon Imaging Workbench (INDEC Biosystems) or OpenLab acquisition software (Improvision, Perkin Elmer). Cells were incubated at room temperature with continuous perfusion using standard buffer containing (in mM): 146 NaCl, 5 KCl, 5 HEPES, 2.5 CaCl2 and 1.2 MgCl2 at pH 7.35 with additions (substrates etc.) as indicated in figure legends. Acquisition exposure times were identical for both 405 nm and 485 nm excitation wavelengths adjusted so that the 510 emission was not saturated for either excitation wavelength. Prior to perfusion with buffers containing substrates, cells were perfused in standard buffer to achieve a stable base line. Fluorescence was reported as the ratio of fluorescence at 510 nm by excitation with 485 and 405 nm wavelengths (F485/F405).

EAAT3 and ASCT1 [1] = target: T2, EAAT3 and ASCT1 (Homo sapiens, UniProt P43005); experiment: Release of preloaded [35S]-L-cysteine from Xenopus oocytes co-expressing EAAT3 and ASCT1; format: cell-based; conditions: TBOA co-incubation
T2 construct: expressed in transfected cells; host or cells: Xenopus oocytes
T2 sequence (P43005 1-524): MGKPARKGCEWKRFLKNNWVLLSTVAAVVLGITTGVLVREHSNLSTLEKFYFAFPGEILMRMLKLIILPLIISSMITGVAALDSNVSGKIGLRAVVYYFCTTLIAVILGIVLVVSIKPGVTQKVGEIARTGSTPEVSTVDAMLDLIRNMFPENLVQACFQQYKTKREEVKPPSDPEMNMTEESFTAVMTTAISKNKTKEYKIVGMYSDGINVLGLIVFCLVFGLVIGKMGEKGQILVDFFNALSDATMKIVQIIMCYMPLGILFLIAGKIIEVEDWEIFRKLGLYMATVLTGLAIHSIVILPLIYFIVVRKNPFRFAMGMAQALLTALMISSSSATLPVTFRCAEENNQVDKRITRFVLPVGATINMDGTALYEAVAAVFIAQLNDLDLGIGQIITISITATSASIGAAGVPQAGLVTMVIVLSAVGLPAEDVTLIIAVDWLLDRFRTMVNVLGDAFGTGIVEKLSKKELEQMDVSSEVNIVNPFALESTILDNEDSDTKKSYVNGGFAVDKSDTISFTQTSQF
Description: mRNA from linearized pOTV-EAAT1, pOTV-EAAT2 and pOTV-EAAT3 was generated as previously described and resuspended in RNAase-free water and used for oocytes injections.
(§1) Oocytes were washed 3 times in ND96 buffer followed by incubation for 10 min with non-radiolabeled substrates as indicated. The supernatant was removed and collected for scintillation counting, while the oocytes were lysed in 1% sodium dodecylsulfate (SDS). The oocytes lysate and supernatant were counted separately by liquid scintillation counting to determine both retained and released radioactivity respectively. Percent of released radioactivity was determined as a function of the released/(retained + released).

EAAT3 and ASCT1 [2] = target: T2, EAAT3 and ASCT1; experiment: Release of preloaded [3H]-L-glutamate from Xenopus oocytes co-expressing EAAT3 and ASCT1; format: cell-based
Description: mRNA from linearized pOTV-EAAT1, pOTV-EAAT2 and pOTV-EAAT3 was generated as previously described and resuspended in RNAase-free water and used for oocytes injections. Xenopus oocytes where injected with 50 nl of mRNA and incubated at 18°C in 96 mM NaCl, 2 mM KCl, 1.8 mM CaCl2, 1.0 mM MgCl2, 5 mM HEPES, pH 7.4 (ND96) supplemented with 2.5 mM Sodium Pyruvate and Gentamicyn for 2 to 3 days prior to using in electrophysiological recordings and radio-labeled transport experiments.
as §1

EAATs = conditions: very low affinity; cited from earlier work

Structure (SMILES): N[C@H](CC(=O)O)C(=O)O [D-aspartate]
mEGFPpH fluorescence change (EAAT3; 100 µM perfusion, EAAT3 HEK293 cells): fluorescence decrease similar to that observed for 100 µM glutamate

Structure (SMILES): Cl.N [NH4Cl]
average intracellular pH (pHi) (HEK293 cells; after NH4Cl washout): ~6.5
average intracellular pH (pHi) (HEK293 cells; during 50 mM NH4Cl perfusion, initial pHi ~7.4, n = 4): ~8.5

effect on [35S]-L-cysteine release in presence of 100 µM glutamate (EAAT3 and ASCT1 [1]): not significantly inhibited
effect on [35S]-cysteine release induced by 300 µM cysteine (EAAT3 and ASCT1 [1]): not inhibited
effect on [3H]-L-glutamate release induced by K+ containing buffer (EAAT3 and ASCT1 [2]; TBOA co-application, data not shown): blocking this release
effect on [3H]-L-glutamate release induced by 100 µM L-glutamate (EAAT3 and ASCT1 [2]; TBOA co-incubation): blocked
effect on [3H]-L-glutamate release induced by cysteine (EAAT3 and ASCT1 [2]; TBOA co-incubation): blocked
effect on cysteine-induced mEGFPpH fluorescence increase (EAAT3; 100 µM TBOA co-applied with 1 mM cysteine): blocked
effect on glutamate-induced mEGFPpH fluorescence changes (EAAT3; co-application with glutamate, data not shown): blocked
Structure (SMILES): N[C@H](C(=O)O)[C@H](OCc1ccccc1)C(=O)O [TBOA]

Structure (SMILES): C[C@H](N)C(=O)O [alanine]
affinity for the transporters (EAATs): > 1 mM

From paper PMC4183567, “Cysteine Transport through Excitatory Amino Acid Transporter 3 (EAAT3)” (PLoS ONE, 2014)
